From paper PMC10916402, “Meropenem-ANT3310, a unique β-lactam-β-lactamase inhibitor combination with expanded antibacterial spectrum against Gram-negative pathogens including carbapenem-resistant Acinetobacter baumannii” (Antimicrobial Agents and Chemotherapy, 2024)
Converted amounts (≈) assume the structure as drawn. “And” between values parts separate entries of the source, which are not always exact repeats. Identical values can stand only once. Like-named read-outs stand apart in the source and are kept apart here. Blank lines part the entries; values can stand above or below the compound they belong to.

Assays:
[1] = system: A. baumannii clinical isolates; assay: Broth microdilution MIC, A. baumannii clinical isolates; assay type: cell-based, Acinetobacter baumannii; conditions: for CLSI % Res: for MEM-ANT3310 % at ≥16 µg/mL; for EUCAST % Res / EUCAST % Sus: EUCAST BP; for Number of isolates inhibited at MIC of >16 µg/mL: footnote c
Procedure: (§1) All isolates were randomly selected from the frozen culture collection of IHMA collected in 2018 and 2019. Matrix-assisted laser desorption ionization-time of flight mass spectrometry was used to confirm the identity of the organisms tested (Bruker Daltonics, Bremen, Germany).
(§2) MICs for all antimicrobial agents were determined at IHMA by broth microdilution in accordance with both CLSI ([17]) and EUCAST ([18]) guidelines. Microtiter panels were prepared by IHMA and stored at −70°C in cation-adjusted Mueller Hinton broth (CAMHB) (Becton Dickinson). Iron-depleted CAMHB was used to test cefiderocol. Panels containing ANT3310 were prepared fresh on the day of testing. […] MIC values corresponded to the first well with no visible growth. Quality control testing was performed on each day of testing with E. coli ATCC 25922, P. aeruginosa ATCC 27853, K. pneumoniae ATCC 700603 and BAA 1705, and A. baumannii NCTC 13304. MICs were interpreted using 2023 CLSI ([17]) and EUCAST ([18]) BPs.

[2] = system: P. aeruginosa clinical isolates; assay: Broth microdilution MIC, P. aeruginosa clinical isolates; assay type: cell-based, Pseudomonas aeruginosa; conditions: 502 P. aeruginosa, 2019 global collection
Procedure: as §1, §2

[3] = system: KPC-producing Enterobacterales (KPC-CRE); assay: organism not typed; assay type: cell-based; conditions: 180 KPC-producing Enterobacterales
Procedure: as §1, §2

[4] = system: OXA-producing Enterobacterales (OXA-CRE); assay: organism not typed; assay type: cell-based; conditions: 252 OXA-producing Enterobacterales
Procedure: as §1, §2

[5] = system: carbapenem-resistant Acinetobacter baumannii (CRAB) clinical isolates; assay: Broth microdilution MIC, CRAB isolates; assay type: cell-based; conditions: for CLSI % Res: for MEM-ANT3310 % at ≥16 µg/mL; for EUCAST % Res / EUCAST % Sus: EUCAST BP; for Number of isolates inhibited at MIC of >16 µg/mL: footnote c
Procedure: as §1, §2

[6] = 2018 Global collection, All A. baumannii, N 500
[7] = 2019 Global collection, All A. baumannii, N 405
[8] = 2019 Global collection, All A. baumannii, N 405, CLSI BP
[9] = CLSI BP, for MEM-ANT3310 % at ≥16 µg/mL
[10] = 2018 Global collection, CRAB, N 363
[11] = 2019 Global collection, CRAB (MEM MICs >4 µg/mL), N 340
[12] = 2019 Global collection, CRAB, N 340, CLSI BP
[13] = 2019 Global collection, CRAB, N 340

Compound: colistin
MIC50 [1, 6]: 0.25 µg/mL | MIC90 [1, 6]: 0.5 µg/mL | Number of isolates inhibited at MIC of 0.25 µg/mL [1, 6]: 287 | Number of isolates inhibited at MIC of 0.5 µg/mL [1, 6]: 165 | Number of isolates inhibited at MIC of 1 µg/mL [1, 6]: 15 | Number of isolates inhibited at MIC of 4 µg/mL [1, 6]: 3 | Number of isolates inhibited at MIC of 8 µg/mL [1, 6]: 2 | Number of isolates inhibited at MIC of 16 µg/mL [1, 6]: 2 | Number of isolates inhibited at MIC of ≤0.125 µg/mL [1, 6]: 22 | CLSI % Res ([1]; 2018 Global collection, All A. baumannii, N 500, CLSI BP): 2.2% | EUCAST % Res [1, 6]: 2.2% | EUCAST % Sus [1, 6]: 97.8% | Number of isolates inhibited at MIC of >16 µg/mL [1, 6]: 4^c | MIC50 [1, 7]: 0.5 µg/mL | MIC90 [1, 7]: 1 µg/mL | Number of isolates inhibited at MIC of 0.25 µg/mL [1, 7]: 32 | Number of isolates inhibited at MIC of 0.5 µg/mL [1, 7]: 296 | Number of isolates inhibited at MIC of 1 µg/mL [1, 7]: 66 | Number of isolates inhibited at MIC of 2 µg/mL [1, 7]: 5 | Number of isolates inhibited at MIC of 4 µg/mL [1, 7]: 1 | Number of isolates inhibited at MIC of 16 µg/mL [1, 7]: 1 | CLSI % Res [1, 8]: 1.5% | EUCAST % Res [1, 7]: 1.5% | EUCAST % Sus [1, 7]: 98.5% | Number of isolates inhibited at MIC of >16 µg/mL [1, 7]: 4^c | % susceptible at EUCAST BP ([1]; A. baumannii, 2018/2019 collections): 98.1% | MIC90 ([1]; A. baumannii, one or both of the 2018/2019 collections): 1 µg/mL | MIC50 [2]: 1 µg/mL | MIC90 [2]: 1 µg/mL | Number of isolates inhibited at MIC of 0.25 µg/mL [2]: 4 | Number of isolates inhibited at MIC of 0.5 µg/mL [2]: 21 | Number of isolates inhibited at MIC of 1 µg/mL [2]: 452 | Number of isolates inhibited at MIC of 2 µg/mL [2]: 21 | Number of isolates inhibited at MIC of 4 µg/mL [2]: 2 | Number of isolates inhibited at MIC of 16 µg/mL [2]: 1 | Number of isolates inhibited at MIC of ≤0.125 µg/mL [2]: 1 | MIC50 ([3]; 2018 global collection): 0.25 µg/mL | MIC90 ([3]; 2018 global collection): 16 µg/mL | CLSI % Res [3, 9]: 26.7% | EUCAST % Res ([3]; EUCAST BP): 26.7% | EUCAST % Sus ([3]; EUCAST BP): 73.3% | MIC50 ([4]; 2018 global collection): 0.25 µg/mL | MIC90 ([4]; 2018 global collection): 8 µg/mL | CLSI % Res [4, 9]: 23.8% | EUCAST % Res ([4]; EUCAST BP): 23.8% | EUCAST % Sus ([4]; EUCAST BP): 76.2% | MIC50 [5]: 0.25 µg/mL and 0.5 µg/mL | MIC90 [5]: 0.5 µg/mL and 1 µg/mL | Number of isolates inhibited at MIC of 4 µg/mL [5]: 2 | Number of isolates inhibited at MIC of 8 µg/mL [5]: 2 | Number of isolates inhibited at MIC of 16 µg/mL [5]: 2 | Number of isolates inhibited at MIC of ≤0.125 µg/mL [5]: 13 | CLSI % Res ([5]; 2018 Global collection, CRAB, N 363, CLSI BP): 2.8% | EUCAST % Res [5, 10]: 2.8% | EUCAST % Sus [5, 10]: 97.2% | Number of isolates inhibited at MIC of >16 µg/mL [5, 10]: 4^c | Number of isolates inhibited at MIC of 2 µg/mL [5, 11]: 4 | CLSI % Res [5, 12]: 1.2% | EUCAST % Res [5, 13]: 1.2% | EUCAST % Sus [5, 13]: 98.8% | Number of isolates inhibited at MIC of >16 µg/mL [5, 13]: 4^c

Number of isolates inhibited at MIC of 0.5 µg/mL [1, 7]: 1 | Number of isolates inhibited at MIC of 1 µg/mL [1, 7]: 1 | Number of isolates inhibited at MIC of 2 µg/mL [1, 7]: 10 | Number of isolates inhibited at MIC of 4 µg/mL [1, 7]: 33 | Number of isolates inhibited at MIC of 8 µg/mL [1, 7]: 96 | Number of isolates inhibited at MIC of 16 µg/mL [1, 7]: 99 | Number of isolates inhibited at MIC of >16 µg/mL [1, 7]: 104^c | Number of isolates inhibited at MIC of ≤0.25 µg/mL ([1]; 2019 Global collection, All A. baumannii, N 405, footnote d): 61^d | MIC50 ([1]; Acinetobacter baumannii, 2019 Global collection, All A. baumannii, N 405, read-out: MIC50): 16 µg/mL (≈ 44.3 µM) | MIC90 ([1]; Acinetobacter baumannii, 2019 Global collection, All A. baumannii, N 405, read-out: MIC90): > 16 µg/mL | MIC90 ([1]; Acinetobacter baumannii, A. baumannii, one or both of the 2018/2019 collections, read-out: MIC90): ≥ 32 µg/mL | Number of isolates inhibited at MIC of 2 µg/mL [5, 11]: 9 | Number of isolates inhibited at MIC of 4 µg/mL [5, 11]: 29 | Number of isolates inhibited at MIC of 8 µg/mL [5, 11]: 92 | Number of isolates inhibited at MIC of 16 µg/mL [5, 11]: 97 | Number of isolates inhibited at MIC of >16 µg/mL [5, 13]: 104^c | Number of isolates inhibited at MIC of ≤0.25 µg/mL ([5]; 2019 Global collection, CRAB, N 340, footnote d): 9^d | MIC50 ([5]; Acinetobacter baumannii, 2019 Global collection, CRAB (MEM MICs >4 µg/mL), N 340, read-out: MIC50): 16 µg/mL (≈ 44.3 µM) | MIC90 ([5]; Acinetobacter baumannii, 2019 Global collection, CRAB (MEM MICs >4 µg/mL), N 340, read-out: MIC90): > 16 µg/mL
Compound: C[C@H]1COc2c(N3CCN(C)CC3)c(F)cc3c(=O)c(C(=O)O)cn1c23 [Levofloxacin, levofloxacin]
CLSI % Res [1, 8]: 73.8% | CLSI % Sus ([1]; 2019 Global collection, All A. baumannii, N 405, CLSI BP, for MEM-ANT3310 % inhibited at ≤8 µg/mL): 18% | EUCAST % Res [1, 7]: 84.4% | EUCAST % Sus [1, 7]: 15.3% | CLSI % Res [5, 12]: 86.2% | CLSI % Sus ([5]; 2019 Global collection, CRAB, N 340, CLSI BP, for MEM-ANT3310 % inhibited at ≤8 µg/mL): 5.3% | EUCAST % Res [5, 13]: 97.3% | EUCAST % Sus [5, 13]: 2.7%
